Experimental findings from PubChem BioAssay (NCI) are described below.

Common to all, as to assay: NCI tumour cell line growth inhibition, 48 h
In assay [1] the test system is MDA-MB-231 breast.
Assay [2] relates to TK-10 renal.
Assay [3] has as its system T-47D breast.
Assay [4] relates to HS 578T breast.
For assay [5], the system named is MDA-MB-435.
Assay [6] concerns MDA-N.
The test system of assay [7] is M14 melanoma.
Assay [8] relates to ACHN renal.
The test system of assay [9] is 786-0 renal.
Assay [10] has as its system DMS 273 small cell lung.
The subject of assay [11] is SNB-78 CNS.
Assay [12] deals with P388/ADR leukemia.
Assay [13] has as its system HOP-18 NSCLC.
The test system of assay [14] is M19-MEL melanoma.
Assay [15] deals with KM20L2 colon.

Each structure is given as a SMILES string.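 Results reflect a 48-hour exposure of cells in 96-well plates to compound at five concentrations. GI50 = concentration required for 50% inhibition of growth. TGI is the concentration that stops growth completely.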

`Clc1nc(Cl)c(Cl)c(Cl)n1`: the TGI in assay [1] is 41.3 µM; in [2] it was 37.3 µM; in [3] it was 41 µM; in assay [4] it was 53.7 µM; in [5], more than 61 µM; in assay [6], 37.9 µM. Further, the results for the TGI in assay [7], in assay [8] and in assay [9] were 34.4 µM, 26 µM and 41.4 µM, respectively.

Turning to `CCCCCCCCCCCCCCCCSCC(COC)COP(=O)([O-])OCC[N+](C)(C)C` (centres undefined), the TGI in assay [10] was determined as 3.9 µM; in assay [11], 26.1 µM; in assay [12] it was 15.2 µM; in assay [13], 16.5 µM; in [14] it was 11 µM.

For the compound `C=C1C[C@@H](O)C[C@@]2(C)C[C@@H]3OC(=O)C(=C)[C@@H]3C[C@H]12`, the TGI in [10] is 20.5 µM; in assay [11], 37.3 µM; in [15] it was 25.4 µM; in assay [12], 31.8 µM; in assay [13], 15.9 µM; in assay [14], more than 100 µM.

In the case of `C=C1C(=O)OC2(C)C3CCC(C3)C12` (centres undefined), the TGI in assay [10] is more than 100 µM; in assay [11] it was more than 100 µM; in assay [15], more than 100 µM; in assay [2], 85.7 µM; in assay [7], 95.7 µM; in assay [13], more than 100 µM. Further, the TGI in assay [8], in assay [14] and in [9] was more than 100 µM each time.

`O=C1CC(=O)c2c(O)cc(O)c(c2O)-c2c(ccc(O)c2O)C2=CC(=O)c3c(O)cc(O)c(c3O2)-c2c1ccc(O)c2O` (tested in a mixture with another compound): the TGI in assay [1], in [2], in assay [3], in assay [4], in assay [5] and in [6] was more than 50 µM each time. This compound also displayed a TGI in assay [7] of more than 50 µM.

In the case of `Cc1c2c(cc3c1[nH]c1ccccc13)C=NCC2`, the TGI in assay [10] is 45.8 µM; in [11] it was 63.8 µM; in assay [15], 34.5 µM; in assay [12], 53.1 µM; in assay [14], 33 µM.

On to `CCOC(=O)c1sc2nc(SC)nc3c2c1NC(=O)CN3c1cccc(F)c1`, for which the TGI in [1] was 41.3 µM; in [2] it was 86.8 µM; in [4], 59.7 µM; in assay [5], more than 100 µM; in assay [6], more than 100 µM; in assay [7] it was 50 µM. The same compound registered a TGI in [8] of 27.3 µM.

In the case of `Cc1c(C(=O)N2CCN(c3ccc([N+](=O)[O-])cc3)CC2)[n+](=O)c2cc(Cl)c(Cl)cc2n1[O-]`, the TGI in [1] is 46.7 µM; in assay [2], 39.3 µM; in assay [3] it was 45 µM; in assay [4], 93.6 µM; in assay [5], more than 100 µM; in [6], more than 100 µM. The TGI in [7] was more than 100 µM; in assay [8], 26.3 µM; in assay [9], 30.8 µM.

In the case of `COC(=O)C1=C(C)NC2(O)C=CC(=O)C3C(=O)N(c4ccccc4)C(=O)C132` (centres undefined), the TGI in [1], in assay [2], in [3], in [4], in assay [5] and in assay [7] was more than 100 µM in each case. Further, the TGI in assay [8] and in assay [9] was more than 100 µM in each case.

On to `CCOc1cc(NC(C)=O)ccc1C(=O)NN1C(=O)C(Oc2ccccc2)C1c1ccccc1` (centres undefined), for which the TGI in assay [1], in assay [2], in [3], in assay [4], in assay [5] and in assay [6] was more than 100 µM in each case. Also, the TGI in assay [8] and in assay [9] was more than 100 µM throughout.

In the case of `Clc1ccc(Cc2nc3ccc(CCN4CCN(c5ccccc5)CC4)cc3[nH]2)cc1`, the TGI in assay [1] is 27.3 µM; in assay [2], 27 µM; in assay [3], 33.6 µM; in assay [4] it was 47.3 µM; in assay [5] it was 26.6 µM; in [6] it was 30.6 µM. The results for the TGI in [7], in assay [8] and in assay [9] were 19.2 µM, more than 100 µM and 23.1 µM, respectively.

Take `Cc1cc(O)c2c(c1O)C(=O)C13C(=C2O)C(=O)C2C(O)C1C1C(O)C3C(=O)C3=C(O)c4c(O)cc(C)c(O)c4C(=O)C321` (centres undefined): the TGI in assay [10] is 0.621 µM; in assay [11], 0.722 µM; in assay [15], more than 100 µM; in assay [12] it was 0.144 µM; in [13] it was 1.17 µM.

For `CNc1ccc(-c2nc3cc(C)ccc3o2)cc1`, the TGI in assay [1], in assay [2], in [3], in assay [4], in assay [5] and in [6] was more than 100 µM each time. The TGI in assay [7], in assay [8] and in assay [9] was more than 100 µM throughout.

On to `CCOC(=O)Nc1c(C#N)[n+]([O-])c2cc(Cl)c(Cl)cc2[n+]1[O-]`, for which the TGI in assay [1] was 35.8 µM; in assay [2] it was more than 100 µM; in [3], 54.2 µM; in [4] it was more than 100 µM; in assay [5] it was 36.6 µM; in assay [6], 43 µM. Besides, the TGI came out at 38.9 µM in assay [7] and 41.7 µM in [9].

Take `CN(C(=O)Cc1ccc(Cl)c(Cl)c1)[C@H]1CCCC[C@@H]1[N+]1(C)CCCC1`: the TGI in assay [1], in assay [2], in [3], in assay [4], in assay [5] and in assay [6] was more than 100 µM throughout. The TGI in [7], in assay [8] and in assay [9] was more than 100 µM each time.

With `NCCCn1c2ccccc2c2c3c(c4c(c21)CCC(O)CC4)C(=O)NC3=O` (centres undefined), the TGI in assay [1] came out at 14.4 µM; in [2] it was 14.7 µM; in assay [4], 20.9 µM; in [5] it was 13.6 µM; in assay [7], 18.2 µM; in [8], 12.1 µM. The same compound returned a TGI in [9] of 16.8 µM.

As for `O=C(CC/C=C(/CS(=O)(=O)c1ccccc1)S(=O)(=O)c1ccccc1)c1ccccc1`, the TGI in assay [10], in assay [15], in assay [2], in [7], in assay [13] and in assay [8] was more than 100 µM each time.

For `CC(=O)[C@@H]1CCC=C2CC[C@]3(C)[C@@H](CC[C@@H]4[C@@]5(C)CCCNC(C)(C)[C@@H]5CC[C@]43C)[C@H]21`, the GI50 is 1.81 µM in assay [1]; 1.88 µM in [2]; 1.72 µM in assay [3]; 1.87 µM in [4]; 1.87 µM in assay [5]. Moreover, the TGI in assay [1] was found to be 3.35 µM; in assay [2], 3.45 µM; in assay [3] it was 3.47 µM; in [4] it was 4.39 µM; in assay [5], 3.49 µM.

Regarding `COc1cccc(-c2ccc3c4c2O[C@H]2c5[nH]c6ccccc6c5C[C@@]5(O)[C@@H](C3)N(CC3CC3)CC[C@]425)c1`, the TGI in assay [1] was determined as 3.44 µM; in [2] it was 3.48 µM; in [3], 4.23 µM; in assay [4] it was 3.33 µM; in assay [5] it was 3.18 µM; in assay [6], 3.28 µM. Also, the results for the TGI in assay [7], in assay [8] and in assay [9] were 3.27 µM, 2.98 µM and 3.09 µM, respectively.

Consider `O=C(NCCCCCCNC(=O)n1cc(F)c(=O)[nH]c1=O)NCCCOCCOCCCNC(=O)C(O)C(O)C(O)C(O)CO` (centres undefined), for which the TGI in assay [10], in [11], in assay [15], in assay [12], in assay [13] and in assay [14] was more than 2.5 µM each time.

As for `COc1ccc(S(=O)(=O)O)cc1-n1nc(C(=O)Nc2ccccc2)n[n+]1-c1cc(S(=O)(=O)[O-])ccc1OC`, the TGI in assay [1], in assay [2], in [3], in assay [4], in [5] and in assay [6] was more than 100 µM each time. Further, the TGI in [7], in [8] and in [9] was more than 100 µM in each case.

As for `CC(=O)NCCC1CN(C(=O)/C=C\C#C[Si](C)(C)C)c2ccccc21` (centres undefined), the TGI in assay [1] was 67.3 µM; in assay [2] it was more than 100 µM; in assay [3], 86.4 µM; in [4], more than 100 µM; in assay [5], more than 100 µM; in assay [6] it was more than 100 µM. The TGI in assay [7] was 45.5 µM; in assay [8], more than 100 µM.

As to `Nc1nc2c(c(=O)[nH]1)N(C=O)C(CNc1ccc(C(=O)N[C@@H](CCC(=O)O)C(=O)O)cc1)CN2` (some centres undefined), the TGI in assay [10], in assay [11], in assay [15], in assay [12], in assay [13] and in [14] was more than 125 µM each time.

With `CC1(C)[C@@H](Cn2cnc3c(N)ncnc32)CC[C@@]1(C)CO`, the TGI in assay [1], in [2], in assay [3], in [4], in assay [5] and in assay [6] was more than 100 µM throughout. The TGI in assay [7], in assay [8] and in assay [9] was more than 100 µM in each case.

On to `O=C(Nc1c[nH]c(=O)[nH]c1=O)C(Cl)Cl`, for which the TGI in [1], in assay [2], in assay [3], in assay [5], in assay [6] and in [7] was more than 100 µM each time. In addition, the TGI in [8] and in assay [9] was more than 100 µM throughout.

On to `ClC(Cl)(Cl)C1=N[C@H]2[C@H](Br)[C@@H]3O[C@@H](c4ccccc4)[C@H](c4ccccc4)O[C@@H]3[C@H]2O1`, for which the TGI in assay [1] is 50.1 µM; in assay [2], 37.5 µM; in assay [3] it was more than 100 µM; in assay [4], 63.7 µM; in assay [5] it was 42.4 µM; in assay [6], 38 µM. In addition, the TGI in [7] stood at 50.3 µM; in assay [8], 31.3 µM; in [9], 39.6 µM.

Turning to `CCN(CC)CCCOC(=O)/C=C/c1c(C)[nH]c(=O)[nH]c1=O`, the TGI in assay [10] is more than 625 µM; in assay [11] it was more than 625 µM; in assay [15], more than 625 µM; in assay [12], more than 394 µM; in [13] it was more than 625 µM; in assay [14], more than 625 µM.

As to `CC(=O)OCC1OC(n2cc(F)c(=O)[nH]c2=O)C(N)C(OC(C)=O)C1OC(C)=O` (centres undefined), the TGI in assay [10], in assay [11], in [15], in assay [12], in [13] and in assay [14] was more than 100 µM throughout.

Turning to `Cc1sc2nc(-c3cc([N+](=O)[O-])c(Cl)cc3Cl)c(/C=N/N=C(N)N)n2c1C`, the TGI in assay [1] was 34.6 µM; in assay [2] it was 35.7 µM; in [4], 82.7 µM; in assay [5] it was 16.6 µM; in [7], 7 µM; in assay [8] it was 39.2 µM. The TGI in assay [9] is more than 100 µM.
